{"source": "patent US20230145729A1", "about": "“INDOLE DITERPENE BIOSYNTHESIS” (priority 2020, published 2023)", "key": {"[1]": {"system": "Porina (Wiseana copularis) larvae", "test": "Porina bioassay of purified epoxy-janthitrems (Example 6)", "format": "in vivo", "conditions": "for inhibition of feeding at the highest concentration: highest concentration (10 μg/g wet weight); for Mortality of larvae: data not shown; for average diet consumption with increasing concentration: 1, 2.5, 10 μg/g wet weight, 21 days", "procedure": "The porina bioassay was carried out as described in Example 4, with the following variations:\n15 replicates were used per treatment;\nthe age of the larvae at the start of the experiment was 10 weeks;\ndiet was made weekly and replaced after 4 days within each week;\nthe average weight of diet consumed by the larvae, larval weight gain/loss (data not shown), and larval mortality (data not shown) was determined;\nthree concentrations of purified epoxy-janthitrems were used (1, 2.5, 10 μg/g wet weight) instead of four; and\nan average daily diet consumption (mg/larva) across the 21 days of the trial was determined."}, "[2]": {"system": "mice (Swiss, female)", "test": "Mouse tremor bioassay of purified epoxy-janthitrems (Example 7)", "format": "in vivo", "conditions": "ip; for peak tremor score (comparison among epoxy-janthitrems): EJ I 13.5, EJ III 17.2, EJ triol 16.2 mg/kg", "procedure": "Epoxy-janthitrem I, Epoxy-janthitrem II, Epoxy-janthitrem III, Epoxy-janthitrem IV, and Epoxy-janthitriol, were administered by intraperitoneal injection as DMSO/water solutions (9:1, 50 μL) into mice (Swiss, female, weight 25+3g). Control mice were injected with the solvent alone (data not shown). Groups of four mice were used for each treatment group. All animal manipulations were approved, and tremor score was calculated, as described above in Example 5.\nThe dosage rates were informed by the experiment described in Example 5 above, with dose rates as follows: epoxy-janthitrem I (EJ I, 13.5 mg/kg), epoxy-janthitrem II (EJ II, 14.2 mg/kg), epoxy-janthitrem III (EJ III, 17.2 mg/kg), epoxy-janthitrem IV (EJ IV, 16.5 mg/kg), epoxy-janthitriol (EJ triol, 16.2 mg/kg). Tremors were measured regularly until the mice had completely recovered."}, "[3]": {"system": "Porina (Wiseana cervinata) larvae", "test": "Porina bioassay of purified epoxy-janthitrem I in semi-synthetic diet (Example 4)", "format": "in vivo", "procedure": "Six week-old porina (W. cervinata) larvae reared from eggs (Popay, 2001) were starved overnight and then weighed individually. Larvae were assigned to replicates so that all larvae within a replicate were of a similar weight but randomised amongst treatments. The 20 replicate larvae per treatment were each placed in specimen containers (75 mL) half filled with commercially available fine bark chips.\n(§1) An agar-based semi-synthetic diet (Popay, 2001) without antimicrobials was prepared and epoxy-janthitrem I dissolved in 100 μL DMSO was added to 10 g of diet. Four concentrations of epoxy-janthitrem I were prepared (1, 2.5, 5, 10 μg/g wet weight) along with a DMSO control. Discs of diet (7 mm diam.) were taken and placed on top of the bark and the lids were replaced. The experiment was kept in the dark at 15° C. After 24 h, each diet was visually scored for feeding on a scale of 0-10 where 0=no feeding and 10=all diet consumed. The amount of webbing present was also scored on a scale of 0-5. The diet disc was replaced daily with fresh diet for 7 days. Each time diet was replaced, samples of the diet that the porina had fed on were taken as well as a sample of the fresh diet to analyse for epoxy-janthitrem I. Porina were reweighed at the completion of the trial.\nThe feeding score data were normalised by square root transformation before a repeated measures analysis was carried out using REML with treatment and date as factors. The daily webbing score and weight change of larvae over 7 days were analysed using ANOVA, blocked by replicate, to make pairwise comparisons for each concentration with the solvent control at each date."}, "[4]": {"test": "Analysis of porina diets for epoxy-janthitrem I (stability in diet)", "format": "physicochemical", "conditions": "average", "procedure": "as §1"}, "[5]": {"system": "mice (Swiss, female)", "test": "Mouse tremor bioassay (Example 5)", "format": "in vivo", "procedure": "Epoxy-janthitrem I, lolitrem B, and the related indole-diterpene, paxilline were administered by intraperitoneal injection as DMSO/water solutions (9:1, 50 μL) into mice (Swiss, female, weight 25+3 g). Control mice were injected with the solvent alone. Dose rates which induce an acceptable maximum tremor response are well established for lolitrem B (2 mg/kg; Gallagher and Hawkes, 1986) and paxilline (6 mg/kg; Miles, et al., 1992).\nGroups of four mice were used for each treatment group. All animal manipulations were approved by the\nAgResearch Ruakura (Hamilton) Animal Ethics Committee established under the Animal Protection (code of ethical conduct) Regulations Act, 1987 (New Zealand). Tremor score was rated 1-5 on the basis of a visual rating scale using well established protocols (Gallagher and Hawkes, 1985; Gallagher and Hawkes, 1986). Tremors were measured regularly until the mice had completely recovered."}}}
{"smiles": "CC(C)=CCOC(C)(C)C1OC2CC[C@]3(C)[C@@]4(C)c5[nH]c6cc7c(cc6c5CC4CC[C@@]3(O)C23O[C@H]3[C@@H]1O)CC1C7=CC(C)(C)OC1(C)C", "note": "(stereo partly drawn) [epoxy-janthitrem III]", "values": [{"measurement": "inhibition of feeding at the highest concentration", "setting": "[1]", "result": "little inhibition of feeding"}, {"measurement": "peak tremor score (comparison among epoxy-janthitrems)", "setting": "[2]", "result": "lowest peak tremor scores"}]}
{"smiles": "CC(C)=CC1O[C@@H]2C(OC3CC[C@]4(C)[C@@]5(C)c6[nH]c7cc8c(cc7c6CC5CC[C@@]4(O)C34O[C@@H]24)CC2C8=CC(C)(C)OC2(C)C)C(C)(C)O1", "note": "(stereo partly drawn) [epoxy-janthitrem II]", "values": [{"measurement": "Weight change of larvae", "setting": "[1]; 2.5 μg/g", "result": "net weigt loss"}, {"measurement": "Mortality of larvae", "setting": "[1]; 2.5 μg/g", "result": "high"}, {"measurement": "Mortality of larvae", "setting": "[1]; 10 μg/g", "result": "high"}, {"measurement": "average diet consumption with increasing concentration", "setting": "[1]", "result": "decreased with increasing epoxy-janthitrem concentration"}, {"measurement": "time of peak tremorgenicity", "setting": "[2]; EJ I 13.5, EJ II 14.2, EJ III 17.2, EJ IV 16.5, EJ triol 16.2 mg/kg", "result": 9, "unit": "hours post administration"}]}
{"smiles": "CC(=O)O[C@@H]1C(C(C)(C)OCC=C(C)C)OC2CC[C@]3(C)[C@@]4(C)c5[nH]c6cc7c(cc6c5CC4CC[C@@]3(O)C23O[C@@H]13)CC1C7=CC(C)(C)OC1(C)C", "note": "(stereo partly drawn) [epoxy-janthitrem IV]", "values": [{"measurement": "inhibition of feeding at the highest concentration", "setting": "[1]", "result": "little inhibition of feeding"}]}
{"smiles": "CC(=O)O[C@@H]1C(C(C)(C)O)OC2CC[C@]3(C)[C@@]4(C)c5[nH]c6cc7c(cc6c5CC4CC[C@@]3(O)C23O[C@@H]13)CC1C7=CC(C)(C)OC1(C)C", "note": "(stereo partly drawn) [epoxy-janthitrem I]", "values": [{"measurement": "Weight change of larvae", "setting": "[1]; 2.5 μg/g", "result": "net weigt loss"}, {"measurement": "Mortality of larvae", "setting": "[1]; 2.5 μg/g", "result": "high"}, {"measurement": "Mortality of larvae", "setting": "[1]; 10 μg/g", "result": "high"}, {"measurement": "average diet consumption with increasing concentration", "setting": "[1]", "result": "decreased with increasing epoxy-janthitrem concentration"}, {"measurement": "effect on consumption at the lowest dose", "setting": "[1]; lowest dose (1 μg/g wet weight)", "result": "substantial inhibitory effect"}, {"measurement": "peak tremor score (comparison among epoxy-janthitrems)", "setting": "[2]", "result": "significantly greater than that observed for any of the other epoxy-janthitrems"}, {"measurement": "Weight change of larvae", "setting": "[3]; 1-10 ppm in diet, 7 days", "result": "continued to decline with increasing concentration"}, {"measurement": "% gain in weight", "setting": "[3]; 1 ppm in diet, P<0.05 vs solvent control", "result": 51.1, "unit": "%"}, {"measurement": "feeding score vs solvent control", "setting": "[3]; 1 ppm in diet, apart from the first day", "result": "did not differ significantly from the solvent control"}, {"measurement": "feeding score vs solvent control", "setting": "[3]; 2.5 ppm in diet", "result": "consistent reduction in feeding score for the first 6 days"}, {"measurement": "feeding score vs solvent control", "setting": "[3]; 5 ppm in diet, entire period of the bioassay", "result": "feeding was strongly inhibited"}, {"measurement": "feeding score vs solvent control", "setting": "[3]; 10 ppm in diet, entire period of the bioassay", "result": "feeding was strongly inhibited"}, {"measurement": "Weight gain of larvae relative to the solvent control", "setting": "[3]; all concentrations except 1 ppm", "result": "significantly reduced"}, {"measurement": "in planta concentration that will reliably reduce larval feeding", "setting": "[3]; extrapolated from dry weight of diet (about ten times wet weight concentrations)", "result": "≥ 25", "unit": "ppm"}, {"measurement": "Survival of larvae during the experiment", "setting": "[3]; treatments containing epoxy-janthitrem I (1, 2.5, 5, 10 μg/g wet weight), 7 days", "result": 100, "unit": "%"}, {"measurement": "concentration of epoxy-janthitrem I in diet relative to expected", "setting": "[4]; analysed at time zero", "result": 98, "unit": "%"}, {"measurement": "epoxy-janthitrem I remaining in diet, % of the starting concentration", "setting": "[4]; diets after 24 h", "result": 81, "unit": "%"}, {"measurement": "tremor response", "setting": "[5]; 8 mg/kg intraperitoneal", "result": "only a low tremor response"}]}
{"smiles": "CC1(C)C=C2c3cc4[nH]c5c(c4cc3CC2C(C)(C)O1)CC1CC[C@@]2(O)C34O[C@H]3[C@H](O)C(C(C)(C)O)OC4CC[C@]2(C)[C@@]51C", "note": "(stereo partly drawn) [epoxy-janthitriol]", "values": [{"measurement": "average diet consumption with increasing concentration", "setting": "[1]", "result": "decreased with increasing epoxy-janthitrem concentration"}, {"measurement": "peak tremor score (comparison among epoxy-janthitrems)", "setting": "[2]", "result": "lowest peak tremor scores"}]}
{"smiles": "CC(C)(O)C1OC2CC[C@@]3(C)[C@@](O)(CCC4Cc5c([nH]c6ccccc56)[C@@]43C)C2=CC1=O", "note": "(stereo partly drawn) [paxilline, Paxilline]", "values": [{"measurement": "time of tremor peak", "setting": "[5]; ip, paxilline 6 mg/kg", "result": 30, "unit": "mins post-dosing"}, {"measurement": "time to complete recovery", "setting": "[5]; ip, paxilline 6 mg/kg", "result": "≤ 6", "unit": "hours post-dosing"}]}
